According to article PMC7430679 (RNA, 2020):

Assays:
T. maritima TsaD = T. maritima TsaD (Thermotoga maritima, UniProt Q9WXZ2); experiment: STD NMR; type: binding; conditions: 20 µM protein, 1 mM amino acid, 10 mM potassium phosphate pH 6.8, 100 mM NaCl, 99% D2O, 37°C
E. coli TsaD = E. coli TsaD (Escherichia coli, UniProt P05852); experiment: STD NMR; type: binding; conditions: 20 µM protein, 1 mM amino acid, 10 mM potassium phosphate pH 6.8, 100 mM NaCl, 99% D2O, 37°C
Chain of E. coli TsaD (P05852 whole entry): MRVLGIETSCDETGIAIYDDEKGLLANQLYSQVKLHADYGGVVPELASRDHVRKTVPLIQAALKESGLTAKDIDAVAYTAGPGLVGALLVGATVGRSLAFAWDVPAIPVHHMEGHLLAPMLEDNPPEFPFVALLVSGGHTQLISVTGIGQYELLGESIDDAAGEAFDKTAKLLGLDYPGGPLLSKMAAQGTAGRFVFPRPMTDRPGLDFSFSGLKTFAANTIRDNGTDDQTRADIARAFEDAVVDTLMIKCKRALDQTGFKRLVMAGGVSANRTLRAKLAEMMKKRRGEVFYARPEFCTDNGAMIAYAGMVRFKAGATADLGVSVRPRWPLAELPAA

Chain of T. maritima TsaD (Q9WXZ2 whole entry): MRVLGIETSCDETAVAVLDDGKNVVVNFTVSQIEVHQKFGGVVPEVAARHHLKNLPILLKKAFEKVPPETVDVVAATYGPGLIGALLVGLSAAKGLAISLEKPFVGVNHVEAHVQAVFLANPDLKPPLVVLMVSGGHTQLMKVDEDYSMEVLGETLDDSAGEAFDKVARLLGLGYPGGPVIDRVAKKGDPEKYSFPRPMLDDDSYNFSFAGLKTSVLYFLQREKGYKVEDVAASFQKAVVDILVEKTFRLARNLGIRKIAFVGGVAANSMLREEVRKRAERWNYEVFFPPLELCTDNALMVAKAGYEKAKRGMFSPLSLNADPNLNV

Compound | STD NMR (T. maritima TsaD; racemate tested) | STD NMR (T. maritima TsaD) | STD NMR (E. coli TsaD)
CCC(O)C(N)C(=O)O (racemic) [hnV, D,L-3-hydroxynorvaline] | interaction with hydroxynorvaline, distinct signals due to interactions with the Hα and Hβ protons |  | 
C[C@@H](O)[C@H](N)C(=O)O [Thr, L-threonine] |  | clear STD NMR signal for its interaction with the Hβ proton of threonine | E. coli TsaD shows a similar pattern of interaction with threonine
